Laboratory results published in the supplement of paper PMC4858399.
Structures can show the parent of a compound that is named as a salt.

Legend:
Details in all cases: exposure time 48 h
[1] = system: Caenorhabditis elegans N2; assay: mean nematode size ln(EXT) after 48 h, plate-adjusted (DMSO control set to 6) (ln(EXT), control-adjusted); higher = larger nematodes / less growth inhibition
Outline: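 In K-medium with killed OP50, 1% DMSO and 0.5–200 µM chemical, synchronised N2 L1 larvae of C. elegans (50 per well) grew for 48 h at 20°C. Extinction was read for every worm on the Biosort, with debris removed by a growth model. Natural-log values averaged per well gave mean size, which was corrected per plate by subtracting the vehicle control mean and adding 6.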

[2] = system: Caenorhabditis elegans N2; assay: lowest effective concentration for larval growth inhibition (size below effect threshold); higher = less potent
Outline: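 C. elegans N2 L1 larvae (50 per 96-well) were grown 48 h at 20°C in K-medium with killed bacteria, 1% DMSO and 0.5, 1, 5, 10, 50, 100 or 200 µM chemical. The Biosort measured per-worm extinction as size, and these were log-transformed into well means. The lowest effective concentration is the first dose where the plate-adjusted mean size drops under the 5.665 threshold and stays under it at higher doses.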

[3] = system: Caenorhabditis elegans N2; assay: AC50 for larval growth inhibition (Hill fit); higher = less potent
Outline: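 C. elegans N2 L1 larvae, synchronised and plated at 50 per well in 96-well plates, were exposed for 48 h at 20°C to 0.5–200 µM chemical in K-medium with killed OP50 and 1% DMSO. Log-transformed extinction from a COPAS Biosort served as worm size, averaged per well. Wells containing at least 10 worms entered the fit. A constrained Hill fit by weighted genetic-algorithm regression yielded the AC50, censored when out of range.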

Structure (SMILES)	mean nematode size ln(EXT) (ln) ([1]; 0.5 µM)	mean nematode size ln(EXT) (ln) ([1]; 1 µM)	mean nematode size ln(EXT) (ln) ([1]; 5 µM)	mean nematode size ln(EXT) (ln) ([1]; 10 µM)	mean nematode size ln(EXT) (ln) ([1]; 50 µM)	mean nematode size ln(EXT) (ln) ([1]; 100 µM)	mean nematode size ln(EXT) (ln) ([1]; 200 µM)	lowest effective concentration [2] [µM]	AC50 for larval growth inhibition [3] [µM]
C#CCOS(=O)OC1CCCCC1Oc1ccc(C(C)(C)C)cc1 (stereo not drawn) [Propargite]	5.95	6.19	5.99	6.05	5.82	5.88	3.35	200	150
CCOC(=O)NCCOc1ccc(Oc2ccccc2)cc1 [Fenoxycarb]	5.96	5.87	5.9	5.59	4.47	4.1	3.72	10	37.2
C#CC(C)(C)NC(=O)c1cc(Cl)cc(Cl)c1 [Propyzamide]	5.98	5.91	5.98	6.01	5.92	5.91	5.63	200	> 200
OCCC(F)(F)C(F)(F)C(F)(F)C(F)(F)C(F)(F)C(F)(F)F [1-Octanol, 3,3,4,4,5,5,6,6,7,7,8,8,8-tridecafluoro-]	5.87	5.92	5.88	5.94	5.91	5.77	5.65	200	> 200
CCC[CH2][Sn]([Cl])([CH2]CCC)[CH2]CCC [Tributyltin chloride]	4.58	4.74	3.7	3.56	3.85	3.97	3.48	≤ 0.5	< 0.5
O=C(O)C1C(C(=O)O)C2(Cl)C(Cl)=C(Cl)C1(Cl)C2(Cl)Cl (stereo not drawn) [Chlorendic acid]	5.71	5.85	5.82	5.84	5.76	5.65	5.45	100	> 200
CCCOC(=O)c1ccc(C(=O)OCCC)nc1 [2,5-Pyridinedicarboxylic acid, dipropyl ester]	5.88	5.95	5.98	5.99	5.93	5.85	5.38	200	> 200
CCOC(=O)C(C)Oc1ccc(Oc2cnc3cc(Cl)ccc3n2)cc1 (stereo not drawn) [Quizalofop-ethyl]	5.77	5.9	5.82	5.91	5.33	4.78	4.4	50	84.1
CCCSP(=O)(OCC)Oc1ccc(Br)cc1Cl (stereo not drawn) [Profenofos]	5.75	6.26	6.17	6.04	4.95	3.31	3.04	50	56.4
CCN(CC)N=O [N-Nitrosodiethylamine]	5.96	5.9	5.89	5.87	5.77	5.75	5.66	200	> 200
CCCCCCCCOC(=O)CCCCCCCCC(=O)OCCCCCCCC [Sebacic acid di-n-octyl ester]	5.75	5.77	5.82	6.22	5.69	5.67	5.58	200	39.2
Cc1nn(-c2cc(NS(C)(=O)=O)c(Cl)cc2Cl)c(=O)n1C(F)F [Sulfentrazone]	5.85	5.87	5.92	5.96	6.05	5.9	5.5	200	108
NC(=O)Cn1c(=O)cc(CCN2CCN(c3nccc4sccc34)CC2)c2ccc(F)cc21 [Trelanserin]	5.9	5.78	5.75	5.81	5.71	5.7	5.54	200	> 200
Cc1cc(SC2=C(O)C[C@@](CCc3ccc(N)cc3)(C(C)C)OC2=O)c(C(C)(C)C)cc1CO	5.92	6.15	6.21	6.22	6.19	6.07	5.64	200	186
CN1CCN(Cc2cc(-c3ccc4[nH]c(=O)oc4c3)co2)[C@@H](c2ccc(F)cc2)C1	5.7	5.65	5.75	5.61	5.3	4.92	3.58	10	114
Cc1ccc(Cl)cc1 [4-Chlorotoluene]	5.8	5.74	5.72	5.77	5.8	5.63	5.37	100	> 200
O=C(CCl)c1ccccc1 [2-Chloroacetophenone]	5.82	5.84	5.82	5.48	5.82	5.8	4.95	200	> 200
CC(C)N(C(=O)SCC(Cl)=C(Cl)Cl)C(C)C [Tri-allate]	5.72	5.91	5.86	5.9	5.39	4.62	3.99	50	86.7
CC(C)COC(=O)c1ccccc1C(=O)OCC(C)C [Diisobutyl phthalate]	5.93	5.94	5.9	5.95	6.12	5.58	5.43	100	96.3

Structure (SMILES)	mean nematode size ln(EXT) (ln) ([1]; 0.5 µM)	mean nematode size ln(EXT) (ln) ([1]; 1 µM)	mean nematode size ln(EXT) (ln) ([1]; 5 µM)	mean nematode size ln(EXT) (ln) ([1]; 10 µM)	mean nematode size ln(EXT) (ln) ([1]; 50 µM)	mean nematode size ln(EXT) (ln) ([1]; 100 µM)	mean nematode size ln(EXT) (ln) ([1]; 200 µM)	lowest effective concentration [2] [µM]	AC50 for larval growth inhibition [3] [µM]
CCCCCCCCCCCC(=O)OC [Methyl laurate]	5.77	5.99	5.92	5.94	5.74	5.82	4.96	200	> 200
CCNc1nc(Cl)nc(NC(C)(C)C)n1 [Terbuthylazin]	6	5.99	5.96	5.95	5.65	5.58	5.22	50	> 200
CN(C)C(=O)Nc1ccc(Cl)c(Cl)c1 [Diuron]	6.19	6.62	6.24	6.31	6.48	6.26	5.16	200	179
CCCOC/C(=N\c1ccc(Cl)cc1C(F)(F)F)n1ccnc1 [Triflumizole]	5.97	6.09	4.54	6.04	5.95	4.88	3.47	100	21.3
N#Cc1cccnc1 [3-Pyridinecarbonitrile]	5.73	5.78	5.61	5.65	5.65	5.65	5.54	5	18.2
CC(C)(C)OOC(C)(C)CCC(C)(C)OOC(C)(C)C [2,5-Dimethyl-2,5-bis(tert-butylperoxy)hexane]	5.81	5.83	5.81	5.79	5.78	5.79	4.23	200	185
O=C(NC(=O)c1cc(F)c(F)cc1Cl)Nc1cc(F)ccc1N1CCC(C(=O)O)CC1	5.94	5.9	5.94	5.9	5.93	5.73	5.57	200	91.3
CC(C)NC(=O)N1CC(=O)N(c2cc(Cl)cc(Cl)c2)C1=O [Iprodione]	5.99	5.95	5.85	6.06	5.87	5.8	5.4	200	> 200
Cc1ccc(C(C)(C)C)c(O)c1 [2-tert-Butyl-5-methylphenol]	6.07	6.05	6.02	6.06	5.95	5.91	4.77	200	> 200
CC[C@H](C)[C@@H](C(=O)O)n1sc2ccccc2c1=O	5.91	6.12	6.17	6.14	6.07	5.94	5.59	200	105
Cc1ccc(/N=C/N(C)/C=N/c2ccc(C)cc2C)c(C)c1 [Amitraz]	6.02	5.93	6.14	5.97	5.95	6.57	4.72	200	200
COP(=S)(OC)Oc1ccc([N+](=O)[O-])cc1 [Parathion-methyl]	5.71	5.8	5.52	5.25	3.72	3.66	3.7	5	15.1
CN(C)C(=O)C1(N2CCCCC2)CCN(CCC2(c3ccc(Cl)c(Cl)c3)CN(C(=O)c3ccccc3)CCO2)CC1 (stereo not drawn)	5.78	5.82	5.83	5.77	5.23	4.76	4.06	50	119
Clc1cccc(C(Cl)(Cl)Cl)n1 [Nitrapyrin]	5.36	5.48	5.3	5.47	5.92	5.54	4.05	100	108
N#Cc1nn(-c2c(Cl)cc(C(F)(F)F)cc2Cl)c(N)c1[S+]([O-])C(F)(F)F (stereo not drawn) [Fipronil]	5.96	5.84	5.92	5.65	5.59	5.52	5.17	10	> 200
CCCCCCCCCCCCCCCCOS(=O)(=O)O [Sodium cetyl sulfate]	5.79	6.01	5.91	5.92	5.38	5	4.68	50	74.7
CCO/N=C(\CC)C1=C(O)CC(c2c(C)cc(C)cc2C)CC1=O (stereo not drawn) [Tralkoxydim]	5.85	5.93	5.9	6.14	6.08	5.93	5.48	200	109
CCCCCOC(=O)COc1cc(N2C(=O)C3=C(CCCC3)C2=O)c(F)cc1Cl [Flumiclorac-pentyl]	5.98	6.04	6.02	5.91	5.69	5.6	4.54	100	> 200
